Results from patent US12139520B2 (priority 2020, dated 2024).
Bridge positions count the residues as written; N and C are the ends. Square brackets hold non-standard residues; d marks the D form. Peptide text beside a SMILES is read from it. Hyp = O=C(O)[C@@H]1C[C@@H](O)CN1; Cit = NC(=O)NCCC[C@H](N)C(=O)O

Experiments:
[1] = molecular target: hAM1 receptor (Homo sapiens, UniProt O60895+Q16602); test: cAMP assay for in vitro receptor activation, hAM1-R; assay type: cell-based; settings: cAMP assay, hAM1 receptor; read-out: hAM1R EC50
Sequence of hAM1 receptor (Q16602 23-461): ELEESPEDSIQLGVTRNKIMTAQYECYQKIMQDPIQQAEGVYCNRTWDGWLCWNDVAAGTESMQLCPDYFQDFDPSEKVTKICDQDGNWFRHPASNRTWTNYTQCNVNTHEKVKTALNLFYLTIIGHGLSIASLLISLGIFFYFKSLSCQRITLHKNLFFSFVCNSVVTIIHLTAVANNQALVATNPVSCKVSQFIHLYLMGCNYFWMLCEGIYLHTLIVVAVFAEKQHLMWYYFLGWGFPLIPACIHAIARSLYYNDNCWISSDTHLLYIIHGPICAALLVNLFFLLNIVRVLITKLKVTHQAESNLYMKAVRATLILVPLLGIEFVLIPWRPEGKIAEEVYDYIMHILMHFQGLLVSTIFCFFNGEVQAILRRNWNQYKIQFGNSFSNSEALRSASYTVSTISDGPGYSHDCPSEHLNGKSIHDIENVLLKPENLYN
Sequence of hAM1 receptor (O60895 43-175 partner): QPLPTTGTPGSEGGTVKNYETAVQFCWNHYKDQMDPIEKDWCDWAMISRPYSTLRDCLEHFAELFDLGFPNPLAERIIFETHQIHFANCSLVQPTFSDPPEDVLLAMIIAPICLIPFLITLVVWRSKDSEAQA
Method in brief: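 Read-out is intracellular cAMP as a measure of receptor activation. Cells stably overexpressing hAM1 were subcloned to a monoclonal line, then thawed and seeded at 8000 cells/well in DPBS with 0.05% casein and the phosphodiesterase inhibitor IBMX at 0.5 mM.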

[2] = Physical stability of peptide analogues (Thioflavin T fibrillation); assay type: physicochemical; settings: maximum ThT signal normalized between hAMY maximum and buffer background; 40° C., shaking, four days; pH 7 per table title
Method in brief: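 1 h in 50 mM NaOAc pH 4 / 50 mM NaPi pH 7; + ThT 4 μM final; 40 °C, 700 rpm linear shake 5 min pre-read; ex 450, em 480 nm q10 min × 4 d; LOESS smoothing; max signal normalised to hAMY max vs buffer blank.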

[3] = molecular target: T1, hAMY3 receptor (Homo sapiens, UniProt O60896+P30988); test: cAMP assay for in vitro receptor activation, hAMY3-R; assay type: cell-based; settings: cAMP assay, hAMY3 receptor; read-out: hAMY3R EC50
T1 sequence (P30988 25-474): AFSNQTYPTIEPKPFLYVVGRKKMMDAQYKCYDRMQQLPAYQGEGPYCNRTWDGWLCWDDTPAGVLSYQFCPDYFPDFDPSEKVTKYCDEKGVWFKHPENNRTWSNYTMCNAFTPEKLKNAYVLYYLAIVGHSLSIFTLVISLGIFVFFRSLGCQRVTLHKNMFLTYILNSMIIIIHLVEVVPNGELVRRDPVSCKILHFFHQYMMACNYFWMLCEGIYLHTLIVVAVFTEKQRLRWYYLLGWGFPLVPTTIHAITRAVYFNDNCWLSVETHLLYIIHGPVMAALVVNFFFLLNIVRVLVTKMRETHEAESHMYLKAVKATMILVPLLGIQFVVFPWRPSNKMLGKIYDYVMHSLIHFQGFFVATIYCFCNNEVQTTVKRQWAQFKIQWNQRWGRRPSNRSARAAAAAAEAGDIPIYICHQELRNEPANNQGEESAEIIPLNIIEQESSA
T1 sequence (O60896 24-148 partner): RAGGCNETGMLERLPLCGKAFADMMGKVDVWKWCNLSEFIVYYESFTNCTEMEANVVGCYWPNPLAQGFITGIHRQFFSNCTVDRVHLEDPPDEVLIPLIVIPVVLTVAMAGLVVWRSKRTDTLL
Method in brief: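 Monoclonal cell line stably overexpressing human AMY3 receptor, 2000 cells/well in DPBS with 0.05% casein and 0.5 mM IBMX. Stimulated 30 min at room temperature with graded compound doses, human amylin as positive control. cAMP accumulation read by TR-FRET after one hour.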

Row | SMILES | EC50 [1] [nM] | Max ThT signal (%) [2] [%] | EC50 [3] [nM]
1 | CC[C@H](C)[C@H](NC(=O)[C@H](CCC(N)=O)NC(=O)[C@H](CC(=O)O)NC(=O)[C@H](C)NC(=O)[C@H](CC(C)C)NC(=O)[C@H](Cc1c[nH]c2ccccc12)NC(=O)[C@H](C)NC(=O)[C@@H](NC(=O)[C@@H](NC(=O)[C@@H]1CSSC[C@H](NC(=O)[C@@H](N)CCCCN)C(=O)N[C@@H](CC(N)=O)C(=O)N[C@@H]([C@@H](C)O)C(=O)N[C@@H](CO)C(=O)N[C@@H]([C@@H](C)O)C(=O)N1)[C@@H](C)O)C(C)C)C(=O)N[C@H](C(=O)N[C@@H](CCC(N)=O)C(=O)N[C@@H](Cc1ccccc1)C(=O)N[C@@H](CO)C(=O)N[C@@H](CC(N)=O)C(=O)N[C@@H](CCCCN)C(=O)N[C@@H](CC(=O)O)C(=O)N[C@@H](CCCCN)C(=O)N[C@@H](C)C(=O)N[C@@H](CCC(N)=O)C(=O)N[C@H](C(=O)N[C@@H](CO)C(=O)N1CCC[C@H]1C(=O)N1CCC[C@H]1C(=O)N[C@H](C(=O)N[C@@H](CCC(=O)O)C(=O)N[C@H](C(=O)NCC(=O)N1CCC[C@H]1C(=O)N[C@@H](CC(N)=O)C(=O)N[C@@H](CO)C(=O)N1C[C@H](O)C[C@H]1C(N)=O)C(C)C)[C@@H](C)O)C(C)C)[C@@H](C)O [compound 306] (H-KCNTSTCTVAWLADQITQFSNKDKAQVSPPTEVGPNS[Hyp]-NH2; disulfide 2-7; N-terminus assumed) | > 5000 | 3.000 | 0.003
2 | CC[C@H](C)[C@H](NC(=O)[C@H](CCC(N)=O)NC(=O)[C@H](Cc1c[nH]cn1)NC(=O)[C@H](C)NC(=O)[C@H](CC(C)C)NC(=O)[C@H](CCCNC(N)=O)NC(=O)[C@H](CCC(N)=O)NC(=O)[C@@H](NC(=O)[C@@H](NC(=O)[C@@H]1CSSC[C@H](NC(=O)[C@@H](N)CCCCN)C(=O)N[C@@H](CC(N)=O)C(=O)N[C@@H]([C@@H](C)O)C(=O)N[C@@H](C)C(=O)N[C@@H]([C@@H](C)O)C(=O)N1)[C@@H](C)O)C(C)C)C(=O)N[C@@H](Cc1ccc(O)cc1)C(=O)N[C@@H](CCC(N)=O)C(=O)N[C@@H](Cc1ccccc1)C(=O)N[C@H](C(=O)N[C@@H](CC(=O)O)C(=O)N[C@@H](CCCCN)C(=O)N[C@@H](CC(=O)O)C(=O)N[C@@H](CCCCN)C(=O)N[C@@H](CC(=O)O)C(=O)N[C@@H](CC(N)=O)C(=O)N[C@H](C(=O)N1CCC[C@H]1C(=O)N1CCC[C@H]1C(=O)N[C@H](C(=O)N[C@@H](CC(N)=O)C(=O)N[C@H](C(=O)NCC(=O)N[C@@H](CO)C(=O)N[C@@H](CC(N)=O)C(=O)NCC(=O)N1C[C@H](O)C[C@H]1C(N)=O)C(C)C)[C@@H](C)O)C(C)C)[C@@H](C)O [compound 254] (H-KCNTATCTVQ[Cit]LAHQIYQFTDKDKDNVPPTNVGSNG[Hyp]-NH2; disulfide 2-7) | > 5000 | 12.050 | 0.006
3 | CC[C@H](C)[C@H](NC(=O)[C@H](CCC(N)=O)NC(=O)[C@H](Cc1c[nH]cn1)NC(=O)[C@H](C)NC(=O)[C@H](CC(C)C)NC(=O)[C@H](Cc1c[nH]c2ccccc12)NC(=O)[C@H](CCC(N)=O)NC(=O)[C@@H](NC(=O)[C@@H](NC(=O)[C@@H]1CSSC[C@H](NC(=O)[C@@H](N)CCCCN)C(=O)N[C@@H](CC(N)=O)C(=O)N[C@@H]([C@@H](C)O)C(=O)N[C@@H](C)C(=O)N[C@@H]([C@@H](C)O)C(=O)N1)[C@@H](C)O)C(C)C)C(=O)N[C@@H](C)C(=O)N[C@@H](CCC(N)=O)C(=O)N[C@@H](Cc1ccccc1)C(=O)N[C@H](C(=O)N[C@@H](CC(=O)O)C(=O)N[C@@H](CCCCN)C(=O)N[C@@H](CC(=O)O)C(=O)N[C@@H](CCCCN)C(=O)N[C@@H](CC(=O)O)C(=O)N[C@@H](CC(N)=O)C(=O)N[C@H](C(=O)N[C@@H](C)C(=O)N1CCC[C@H]1C(=O)N1CCC[C@H]1C(=O)N[C@H](C(=O)N[C@@H](CC(N)=O)C(=O)N[C@H](C(=O)NCC(=O)N[C@@H](CO)C(=O)N[C@@H](CC(N)=O)C(=O)NCC(=O)N1C[C@H](O)C[C@H]1C(N)=O)C(C)C)[C@@H](C)O)C(C)C)[C@@H](C)O [compound 309] (H-KCNTATCTVQWLAHQIAQFTDKDKDNVAPPTNVGSNG[Hyp]-NH2; disulfide 2-7; N-terminus assumed) | > 5000 | 4.250 | 0.025

Results, then the compound that gave them:

Row | EC50 [1] [nM] | Max ThT signal (%) [2] [%] | EC50 [3] [nM] | SMILES
4 | > 5000 | 3.350 | 0.017 | CC[C@H](C)[C@H](NC(=O)[C@H](CCC(N)=O)NC(=O)[C@H](CC(=O)O)NC(=O)[C@H](C)NC(=O)[C@H](CC(C)C)NC(=O)[C@H](CCCNC(N)=O)NC(=O)[C@H](CC(N)=O)NC(=O)[C@@H](NC(=O)[C@@H](NC(=O)[C@@H]1CSSC[C@H](NC(=O)[C@@H](N)CCCNC(=N)N)C(=O)N[C@@H](CC(N)=O)C(=O)N[C@@H](C)C(=O)N[C@@H](CO)C(=O)N[C@@H]([C@@H](C)O)C(=O)N1)[C@@H](C)O)C(C)C)C(=O)N[C@H](C(=O)N[C@@H](CCC(N)=O)C(=O)N[C@@H](Cc1ccccc1)C(=O)N[C@@H](CO)C(=O)N[C@@H](CC(N)=O)C(=O)N[C@@H](CCCCN)C(=O)N[C@@H](CC(=O)O)C(=O)N[C@@H](CCCCN)C(=O)N[C@@H](C)C(=O)N[C@@H](CCC(N)=O)C(=O)N[C@H](C(=O)N[C@@H](CO)C(=O)N1CCC[C@H]1C(=O)N1CCC[C@H]1C(=O)N[C@H](C(=O)N[C@@H](CCC(=O)O)C(=O)N[C@H](C(=O)NCC(=O)N1CCC[C@H]1C(=O)N[C@@H](CC(N)=O)C(=O)N[C@@H](CO)C(=O)N1C[C@H](O)C[C@H]1C(N)=O)C(C)C)[C@@H](C)O)C(C)C)[C@@H](C)O [compound 245] (H-RCNASTCTVN[Cit]LADQITQFSNKDKAQVSPPTEVGPNS[Hyp]-NH2; disulfide 2-7; N-terminus assumed)
5 | > 5000 | 2.800 | 0.006 | CC[C@H](C)[C@H](NC(=O)[C@H](CCC(N)=O)NC(=O)[C@H](C)NC(=O)[C@H](C)NC(=O)[C@H](CC(C)C)NC(=O)[C@H](CCCNC(=N)N)NC(=O)[C@H](CCC(N)=O)NC(=O)[C@@H](NC(=O)[C@@H](NC(=O)[C@@H]1CSSC[C@H](NC(=O)[C@@H](N)CCCCN)C(=O)N[C@@H](CC(N)=O)C(=O)N[C@@H]([C@@H](C)O)C(=O)N[C@@H](C)C(=O)N[C@@H]([C@@H](C)O)C(=O)N1)[C@@H](C)O)C(C)C)C(=O)N[C@@H](Cc1ccc(O)cc1)C(=O)N[C@@H](CCC(N)=O)C(=O)N[C@@H](Cc1ccccc1)C(=O)N[C@H](C(=O)N[C@@H](CC(=O)O)C(=O)N[C@@H](CCCCN)C(=O)N[C@@H](CC(=O)O)C(=O)N[C@@H](CCCCN)C(=O)N[C@@H](CC(=O)O)C(=O)N[C@@H](CC(N)=O)C(=O)N[C@H](C(=O)N[C@@H](C)C(=O)N1CCC[C@H]1C(=O)N1CCC[C@H]1C(=O)N[C@H](C(=O)N[C@@H](CC(N)=O)C(=O)N[C@H](C(=O)NCC(=O)N[C@@H](CO)C(=O)N[C@@H](CC(N)=O)C(=O)NCC(=O)N1C[C@H](O)C[C@H]1C(N)=O)C(C)C)[C@@H](C)O)C(C)C)[C@@H](C)O [compound 7] (H-KCNTATCTVQRLAAQIYQFTDKDKDNVAPPTNVGSNG[Hyp]-NH2; disulfide 2-7; N-terminus assumed)
6 | > 5000 | 19.200 | 0.064 | CC[C@H](C)[C@H](NC(=O)[C@H](CCC(N)=O)NC(=O)[C@H](Cc1c[nH]cn1)NC(=O)[C@H](C)NC(=O)[C@H](CC(C)C)NC(=O)[C@H](CCCNC(N)=O)NC(=O)[C@H](CCC(N)=O)NC(=O)[C@@H](NC(=O)[C@@H](NC(=O)[C@@H]1CSSC[C@H](NC(=O)CN)C(=O)N[C@@H](CCCNC(=N)N)C(=O)N[C@@H](Cc2ccccc2)C(=O)NCC(=O)N[C@@H]([C@@H](C)O)C(=O)N1)[C@@H](C)O)C(C)C)C(=O)N[C@@H](Cc1ccc(O)cc1)C(=O)N[C@@H](CCC(N)=O)C(=O)N[C@@H](Cc1ccccc1)C(=O)N[C@H](C(=O)N[C@@H](CC(=O)O)C(=O)N[C@@H](CCCCN)C(=O)N[C@@H](CC(=O)O)C(=O)N[C@@H](CCCCN)C(=O)N[C@@H](CC(=O)O)C(=O)N[C@@H](CC(N)=O)C(=O)N[C@H](C(=O)N[C@@H](C)C(=O)N1CCC[C@H]1C(=O)N[C@@H](CCCNC(=N)N)C(=O)N[C@H](C(=O)N[C@@H](CC(N)=O)C(=O)N[C@H](C(=O)N[C@@H](CO)C(=O)N1CCC[C@H]1C(=O)N[C@@H](CCC(N)=O)C(=O)NCC(=O)N1C[C@H](O)C[C@H]1C(N)=O)[C@@H](C)CC)[C@@H](C)O)C(C)C)[C@@H](C)O [compound 291] (H-GCRFGTCTVQ[Cit]LAHQIYQFTDKDKDNVAPRTNISPQG[Hyp]-NH2; disulfide 2-7)
